Measurements: patent US6737383B1, “Herbicidal oxadiazolidines” (priority 1999, dated 2004)

Legend:
bedstraw = experiment: Test B pre/postemergence bedstraw; type: in vivo, Galium aparine
Outline: (§1)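 Response is a visual 0-to-10 score relative to untreated plants, where 0 means no effect and 10 means complete control, taken twelve to sixteen days after application. Treatments went onto soil at planting and onto foliage of 1- to 4-leaf plants, using a surfactant-containing non-phytotoxic solvent.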

blackgrass = experiment: Test B pre/postemergence blackgrass; type: in vivo, Alopecurus myosuroides
Outline: as §1

surinam grass = experiment: Test B pre/postemergence surinam grass; type: in vivo, Brachiaria decumbens
Outline: as §1

cocklebur = experiment: Test B pre/postemergence cocklebur; type: in vivo, Xanthium strumarium
Outline: as §1

corn = experiment: Test B pre/postemergence corn; type: in vivo, Zea mays
Outline: as §1

crabgrass = experiment: Test B pre/postemergence crabgrass; type: in vivo, Digitaria sanguinalis
Outline: as §1

giant foxtail = experiment: Test B pre/postemergence giant foxtail; type: in vivo, Setaria faberii
Outline: as §1

morningglory = experiment: Test B pre/postemergence morningglory; type: in vivo, Ipomoea hederacea
Outline: as §1

pigweed = experiment: Test B pre/postemergence pigweed; type: in vivo, Amaranthus retroflexus
Outline: as §1

rape = experiment: Test B pre/postemergence rape; type: in vivo, Brassica napus
Outline: as §1

soybean = experiment: Test B pre/postemergence soybean; type: in vivo, Glycine max
Outline: as §1

sugar beet = experiment: Test B pre/postemergence sugar beet; type: in vivo, Beta vulgaris
Outline: as §1

velvetleaf = experiment: Test B pre/postemergence velvetleaf; type: in vivo, Abutilon theophrasti
Outline: as §1

wheat = experiment: Test B pre/postemergence wheat; type: in vivo, Triticum aestivum
Outline: as §1

wild oat = experiment: Test B pre/postemergence wild oat; type: in vivo, Avena fatua
Outline: as §1

purple nutsedge = experiment: Test B pre/postemergence purple nutsedge; type: in vivo, Cyperus rotundus
Outline: as §1

[1] = Postemergence, Rate 62 g/ha, scale of 0 to 10, 0 is no effect, 10 is complete control
[2] = Postemergence, Rate 125 g/ha, scale 0 to 10, 0 is no effect, 10 is complete control
[3] = Postemergence, Rate 500 g/ha, scale 0 to 10, 0 is no effect, 10 is complete control
[4] = Preemergence, Rate 62 g/ha, scale of 0 to 10 where 0 is no effect and 10 is complete control
[5] = Preemergence, Rate 125 g/ha, scale 0 to 10, 0 is no effect, 10 is complete control
[6] = Preemergence, Rate 500 g/ha, scale 0 to 10, 0 is no effect, 10 is complete control
[7] = Rate 250 g/ha, Postemergence, scale of 0 to 10 where 0 is no effect and 10 is complete control
[8] = Preemergence, Rate 500 g/ha, scale of 0 to 10 where 0 is no effect and 10 is complete control

## CC(C)N(C(=O)n1oc(=O)n(CCCCF)c1=O)c1ccc(F)cc1F [Compound 522]
bedstraw; [1]
  Bedstraw plant response rating: 0
bedstraw; [2]
  Bedstraw plant response rating: 0
bedstraw; [3]
  Plant response rating, Bedstraw: 10
bedstraw; [4]
  Plant response rating, Bedstraw: 10
bedstraw; [5]
  Bedstraw plant response rating: 10
bedstraw; Preemergence, Rate 250 g/ha
  Bedstraw plant response rating (0 to 10 scale): 10
bedstraw; [6]
  Bedstraw plant response rating: 10
bedstraw; [7]
  Plant response rating, Bedstraw: 9
blackgrass; [1]
  Blackgrass plant response rating: 8
blackgrass; [2]
  Blackgrass plant response rating: 8
blackgrass; [3]
  Plant response rating, Blackgrass: 8
blackgrass; [4]
  Plant response rating, Blackgrass: 4
blackgrass; [5]
  Blackgrass plant response rating: 8
blackgrass; Preemergence, Rate 250 g/ha
  Blackgrass plant response rating (0 to 10 scale): 9
blackgrass; [8]
  Blackgrass plant response rating: 9
blackgrass; [7]
  Plant response rating, Blackgrass: 8
Surinam grass; [1]
  B. signalgrass plant response rating: 0
Surinam grass; [2]
  B. signalgrass plant response rating: 5
Surinam grass; [3]
  Plant response rating, B. signalgrass: 7
Surinam grass; [4]
  Plant response rating, B. signalgrass: 10
Surinam grass; [5]
  B. signalgrass plant response rating: 9
Surinam grass; Preemergence, Rate 250 g/ha
  B. signalgrass plant response rating (0 to 10 scale, 0 is no effect, 10 is complete control): 9
Surinam grass; [6]
  B. signalgrass plant response rating: 9
Surinam grass; [7]
  Plant response rating, B. signalgrass: 7
cocklebur; [1]
  Cocklebur plant response rating: 0
cocklebur; [2]
  Cocklebur plant response rating: 3
cocklebur; [3]
  Plant response rating, Cocklebur: 3
cocklebur; [4]
  Plant response rating, Cocklebur: 0
cocklebur; [5]
  Cocklebur plant response rating: 0
cocklebur; Preemergence, Rate 250 g/ha
  Cocklebur plant response rating (0 to 10 scale): 0
cocklebur; [7]
  Plant response rating, Cocklebur: 3
corn; [1]
  Corn plant response rating: 0
corn; [2]
  Corn plant response rating: 3
corn; [3]
  Plant response rating, Corn: 5
corn; [4]
  Plant response rating, Corn: 2
corn; [5]
  Corn plant response rating: 7
corn; Preemergence, Rate 250 g/ha
  Corn plant response rating (0 to 10 scale): 7
corn; [8]
  Corn plant response rating: 9
corn; [7]
  Plant response rating, Corn: 3
crabgrass; [1]
  Crabgrass plant response rating: 8
crabgrass; [2]
  Crabgrass plant response rating: 8
crabgrass; [3]
  Plant response rating, Crabgrass: 9
crabgrass; [4]
  Plant response rating, Crabgrass: 9
crabgrass; [5]
  Crabgrass plant response rating: 10
crabgrass; Preemergence, Rate 250 g/ha
  Crabgrass plant response rating (0 to 10 scale): 10
crabgrass; [8]
  Crabgrass plant response rating: 10
crabgrass; [7]
  Plant response rating, Crabgrass: 8
Giant foxtail; [1]
  Giant foxtail plant response rating: 8
Giant foxtail; [2]
  Giant foxtail plant response rating: 8
Giant foxtail; [3]
  Plant response rating, Giant foxtail: 9
Giant foxtail; [4]
  Plant response rating, Giant foxtail: 10
Giant foxtail; [5]
  Giant foxtail plant response rating: 10
Giant foxtail; Preemergence, Rate 250 g/ha
  Giant foxtail plant response rating (0 to 10 scale): 10
Giant foxtail; [8]
  Giant foxtail plant response rating: 10
morningglory; [1]
  Morningglory plant response rating: 3
morningglory; [2]
  Morningglory plant response rating: 4
morningglory; [3]
  Plant response rating, Morningglory: 5
morningglory; [4]
  Plant response rating, Morningglory: 0
morningglory; [5]
  Morningglory plant response rating: 2
morningglory; Preemergence, Rate 250 g/ha
  Morningglory plant response rating (0 to 10 scale): 2
morningglory; [8]
  Morningglory plant response rating: 4
morningglory; [7]
  Plant response rating, Morningglory: 4
pigweed; [1]
  Redroot pigweed plant response rating: 0
pigweed; [2]
  Redroot pigweed plant response rating: 4
pigweed; [3]
  Plant response rating, Redroot pigweed: 9
pigweed; [4]
  Plant response rating, Redroot pigweed: 10
pigweed; [5]
  Redroot pigweed plant response rating: 10
pigweed; Preemergence, Rate 250 g/ha
  Redroot pigweed plant response rating (0 to 10 scale): 10
pigweed; [8]
  Redroot pigweed plant response rating: 10
pigweed; [7]
  Plant response rating, Redroot pigweed: 4
rape; [1]
  Rape plant response rating: 0
rape; [2]
  Rape plant response rating: 0
rape; [3]
  Plant response rating, Rape: 9
rape; [4]
  Plant response rating, Rape: 0
rape; [5]
  Rape plant response rating: 2
rape; Preemergence, Rate 250 g/ha
  Rape plant response rating (0 to 10 scale): 4
rape; [8]
  Rape plant response rating: 6
rape; [7]
  Plant response rating, Rape: 0
soybean; [1]
  Soybean plant response rating: 4
soybean; [2]
  Soybean plant response rating: 6
soybean; [3]
  Plant response rating, Soybean: 6
soybean; [4]
  Plant response rating, Soybean: 0
soybean; [5]
  Soybean plant response rating: 0
soybean; Preemergence, Rate 250 g/ha
  Soybean plant response rating (0 to 10 scale): 0
soybean; [8]
  Soybean plant response rating: 10
Sugar beet; [1]
  Sugarbeets plant response rating: 6
Sugar beet; [2]
  Sugarbeets plant response rating: 6
Sugar beet; [3]
  Plant response rating, Sugarbeets: 6
Sugar beet; [4]
  Plant response rating, Sugarbeets: 5
Sugar beet; [5]
  Sugarbeets plant response rating: 5
Sugar beet; Preemergence, Rate 250 g/ha
  Sugarbeets plant response rating (0 to 10 scale): 5
Sugar beet; [8]
  Sugarbeets plant response rating: 7
Sugar beet; [7]
  Plant response rating, Sugarbeets: 6
velvetleaf; [1]
  Velvetleaf plant response rating: 2
velvetleaf; [2]
  Velvetleaf plant response rating: 5
velvetleaf; [3]
  Plant response rating, Velvetleaf: 7
velvetleaf; [4]
  Plant response rating, Velvetleaf: 2
velvetleaf; [5]
  Velvetleaf plant response rating: 6
velvetleaf; Preemergence, Rate 250 g/ha
  Velvetleaf plant response rating (0 to 10 scale): 8
velvetleaf; [8]
  Velvetleaf plant response rating: 9
velvetleaf; [7]
  Plant response rating, Velvetleaf: 7
wheat; [1]
  Wheat plant response rating: 0
wheat; [2]
  Wheat plant response rating: 0
wheat; [3]
  Plant response rating, Wheat: 5
wheat; [4]
  Plant response rating, Wheat: 0
wheat; [5]
  Wheat plant response rating: 0
wheat; Preemergence, Rate 250 g/ha
  Wheat plant response rating (0 to 10 scale): 2
wheat; [8]
  Wheat plant response rating: 8
wheat; [7]
  Plant response rating, Wheat: 5
Wild oat; [1]
  Wild oats plant response rating: 0
Wild oat; [2]
  Wild oats plant response rating: 4
Wild oat; [3]
  Plant response rating, Wild oats: 7
Wild oat; [4]
  Plant response rating, Wild oats: 10
Wild oat; [5]
  Wild oats plant response rating: 2
Wild oat; Preemergence, Rate 250 g/ha
  Wild oats plant response rating (0 to 10 scale): 4
Wild oat; [8]
  Wild oats plant response rating: 9
Wild oat; [7]
  Plant response rating, Wild oats: 7
Purple nutsedge; [1]
  Nutsedge plant response rating: 0
Purple nutsedge; [2]
  Nutsedge plant response rating: 0
Purple nutsedge; [3]
  Plant response rating, Nutsedge: 0
Purple nutsedge; [4]
  Plant response rating, Nutsedge: 0
Purple nutsedge; [5]
  Nutsedge plant response rating: 9
Purple nutsedge; Preemergence, Rate 250 g/ha
  Nutsedge plant response rating (0 to 10 scale): 10
Purple nutsedge; [8]
  Nutsedge plant response rating: 10
Purple nutsedge; [7]
  Plant response rating, Nutsedge: 0
